Where a SMILES comes first, the peptide text is derived from it. Bridges are numbered along the chain shown (N, C = ends).
Tests used:
[1] = test system: rabbit red blood cells; assay: Hemolysis activity determination; assay type: cell-based; conditions: 2% rabbit red blood cells in PBS pH 7.4, 37 °C 1 h, OD 570 nm, repeated three times
Protocol: Briefly, the collected rabbit red blood cells [purchased from Oumarsi (Shanghai, China) Biotechnology Co., Ltd.] were washed three times with PBS (pH 7.4) and diluted to 2% (v/v). A total of 100 µL of rabbit red blood cells suspension were mixed with 100 µL of PBS (pH 7.4) containing different concentrations of peptides (1–256 µM) in a 96-well plate. The positive control was a mixture of 100 µL of red blood cell suspension and 100 µL of 0.2% TritonX-100 solution, and the negative control was a mixture of 100 µL of red blood cell suspension and 100 µL of PBS solution. The mixtures were incubated at 37 °C for 1 h, then centrifuged at 1000× g for 10 min. The OD value at 570 nm of the supernatant was measured using a microplate reader (TECAN GENios F129004, Tecan, Salzburg, Austria). The hemolytic index was calculated according to the following formula:Hemolytic index % = (OD peptide − ODPBS)/(ODT ritonX-100 − ODPBS) × 100%(2)
The concentration of the antimicrobial peptide causing 10% erythrocyte hemolysis was defined as the minimum hemolytic concentration of the antimicrobial peptide on rabbit red blood cells. The experiment was repeated three times.

[2] = test system: E. coli ATCC25922; assay: Bactericidal kinetics assay; assay type: cell-based; conditions: 1 × MIC and 2 × MIC, 1 × 10^6 CFU/mL, 37 °C, dose-dependent, Figure 1f
Protocol: Bactericidal kinetics assay was performed according to the method outlined by Zhang et al.. […] The mixed solutions were incubated in a shaker at 37 °C. A total of 100 μL of the above mixed solution was absorbed every 20 min and diluted with sterile MH liquid medium, and then 50 μL of bacterial solution was aspirated and evenly coated on the solid MH plate. After incubation at 37 °C for 16–18 h, the bacteria colonies on the plate were counted. The bactericidal kinetics curves of LR18 and C-LR18 against E. coli ATCC25922 were plotted. The experiment was repeated three times.

[3] = test system: E. coli ATCC25922; assay: Membrane permeability assay (propidium iodide uptake, flow cytometry); assay type: cell-based; conditions: 1 × MIC (4 μM), 30 min 37 °C, 1 × 10^6 CFU/mL, PBS control 3.25%
Protocol: The effect of C-LR18 on bacterial membrane permeability was measured using the propidium iodide (PI) uptake assay described in [22]. E. coli ATCC25922 in logarithmic growth phase were adjusted to 1 × 10^6 CFU/mL. C-LR18 was added with the final concentration of 4 μM. The mixtures were incubated for 30 min at 37 °C. […] After eliminating unbound dye by washing twice with PBS, the bacterial cells were detected using a flow cytometer (Ex = 535 nm/Em = 615 nm). The results were analyzed using FlowJo 6.2.1 and GraphPad Prism 5 software.

[4] = test system: genomic DNA of E. coli ATCC25922; assay: DNA binding assay (gel retardation); conditions: 100 ng genomic DNA, 1–512 µM peptide, 37 °C 60 min, 0.8% agarose gel
Protocol: The DNA binding test was performed according to gel retardation experiments described previously. Firstly, genomic DNA was extracted from E. coli ATCC25922 using a DNA extraction kit. A total of 100 ng of genomic DNA was mixed with 1–512 µM peptide in a binding buffer (50 µg/mL of BSA, 1 mM of ethylene diamine tetra-acetic acid, 20 mM of KCl, 10 mM of Tris-HCl (pH = 8.0), 5% glycerol, and 1 mM of dithiothreitol) and incubated at 37 °C for 60 min. Subsequently, the samples were examined using 0.8% agarose gel electrophoresis. Observation and photography were performed in the UVP gel imaging system, and the electrophoresis mobility was analyzed.

[5] = test system: E. coli ATCC25922; assay: Stability in serum, read out by MIC assay; assay type: in vitro ADME
Protocol: The MIC test was performed using the method recommended by the National Committee for Clinical Laboratory Standards (NCCLS) Standards and Guidelines, and the method was modified according to the characteristics of antimicrobial peptides. The bacteria were cultured at 37 °C for 16 h, and the microbial suspension was diluted to a final concentration of 5 × 10^5 CFU/mL. Then, 50 µL of bacterial solution was mixed with 50 µL of MHB containing different concentrations peptides (0.5–256 µM) in a 96-well plate. […] The assays were performed three times. Geometric mean MIC represents the average MIC of the peptide against all the tested strains.
The stability of LR18 and C-LR18 in protease, serum, and gastrointestinal conditions was determined using MIC assay, as described previously.
To detect the stability of peptides in serum, the peptides were mixed with various concentrations of fetal bovine serum and mouse serum solutions, and the final concentrations of serum were 6.25%, 12.5%, 25%, and 50%. The MIC of peptides against E. coli ATCC25922 in the presence of different concentrations of serum was determined. Subsequent steps were the same as for the MIC assay. The assays were performed three times.

[6] = Half-life of peptides in plasma in vitro (HPLC); assay type: in vitro ADME, rat
Protocol: Half-life of peptides in vitro was determined using HPLC according to the method described in [30]. Blood from SPF SD rats was collected in a centrifuge tube containing 0.5% heparin sodium via cardiac sampling. Plasma was separated and stored at −80 °C until analyzed. The plasma samples with final concentrations of 25 μg/mL, 50 μg/mL, 100 μg/mL, 200 μg/mL, 400 μg/mL, and 750 μg/mL were prepared by mixing 1500 μg/mL of antimicrobial peptides with rat plasma, then adding acetonitrile containing 0.1% TFA at 1/1 volume. After vortexing for 30 s, the samples were centrifuged at 14,000 r/min for 20 min, the supernatant was aspirated, sterilized using a 0.22 μm sterilization filter, and 30 μL of the sample was used for HPLC determination. After HPLC detection, the value of the chromatographic peak area was counted, the mathematical relationship between the sample concentration and the chromatographic peak area was calculated, and the standard curve was drawn. The standard curve was regressio-calculated by linear fitting Y = aX + b and weighted least square method (w = 1/c2).
The 1 mg/mL peptide solution was mixed with SD rat plasma and incubated in a water bath at 37 °C. Samples were taken at different time points of 0, 20, 30, 40, 60, 80, 100, 120, 140, 160, 180, 200, 210, 240, 300, 400, 500, and 600 min. After vortexing for 30 s, the samples were centrifuged at 14,000 r/min for 20 min, the supernatant was aspirated and sterilized using a 0.22 μm sterilization filter, and 30 μL of the sample was used for HPLC determination. The experiment was repeated three times. The peak area measured by HPLC was substituted into the standard curve obtained by the above experiment, the peptide concentration at different time points was calculated, and the half-life of peptides in plasma was calculated.

[7] = test system: E. coli Y1; assay: Bacterial colony number in mouse abdominal cavity; assay type: in vivo; conditions: 24 h after treatment, three mice, control group 1 × 10^9 CFU/mL
Protocol: One hour after the mice were intraperitoneally injected with 0.5 mL of E. coli Y1 suspension (10^9 CFU/mL), different doses of C-LR18 (2.5 mg/kg, 5 mg/kg, and 7.5 mg/kg) were injected into the mice through the tail vein, respectively. After 24 h, 2 mL sterile saline was injected into the abdominal cavity of the mice, and the mice were killed via cervical dislocation. The peritoneal cavity of mice was opened, the peritoneal fluid was absorbed, and the peritoneal fluid was diluted with sterilized MH medium in a double ratio. After coating the plate, the peritoneal fluid was cultured at 37 °C for 16–20 h, and the colony count was performed. Three mice were taken from each group.

In the case of CC(C)C[C@@H]1NC(=O)[C@H](CCCNC(=N)N)NC(=O)[C@H](CCCNC(=N)N)NC(=O)[C@H](CC(C)C)NC(=O)[C@H](CC(C)C)NC(=O)[C@H](CCCNC(=N)N)NC(=O)[C@H](CC(C)C)NC(=O)[C@@H]2CCCN2C(=O)[C@H](CCCNC(=N)N)NC(=O)[C@H](CCCNC(=N)N)NC(=O)[C@@H]2CCCN2C(=O)[C@H](CC(C)C)NC(=O)[C@H](CCCNC(=N)N)NC(=O)[C@H](CC(C)C)NC(=O)[C@H](CC(C)C)NC(=O)[C@H](CCCNC(=N)N)NC(=O)[C@H](CCCNC(=N)N)NC(=O)[C@H](CC(C)C)NC(=O)[C@@H](N)CSSC[C@@H](C(=O)O)NC1=O [C-LR18] (H-CLRRLLRLPRRPLRLLRRLC-OH; disulfide 1-20; N-terminus and C-terminus assumed), the “MHC10 (lowest concentration inducing 10% hemolysis)” value [1] is reported as 128 µM, the “time to complete killing of E. coli ATCC25922” value [2] is reported as at most 100 min and the “PI fluorescence of treated cells (PI-A+)” value [3] is reported as 60.6%. For the same compound, the “concentration exhibiting DNA-binding ability” value [4] was 64 µM, the “increase of MIC” value ([5]; 50% serum or artificial gut solution for 30 min (abstract)) was 4 fold and the “increase of MIC” value ([5]; serum concentration 50%) was 4 times. For the same compound, the half-life ([6]; 1 mg/mL peptide solution mixed with SD rat plasma (heparin), 37 °C water bath, 0–600 min, HPLC, repeated three times) was 3.49 ± 0.337 h, the “peptide degraded in plasma” value ([6]; after 210 min, rat plasma 37 °C, HPLC) was “More than half” and the “peptide detected in plasma samples” value ([6]; after 600 min, rat plasma 37 °C, HPLC) was “no C-LR18 could be detected”. For the same compound, the “half-life in rat plasma relative to LR18” value ([6]; in vitro rat plasma) was 3.37 times, the “prolongation of half-life in rat plasma versus LR18” value ([6]; in vitro rat plasma) was 2.4555 h and the “number of colonies in mouse abdominal cavity” value (“number of colonies” below) ([7]; 2.5 mg/kg) was 10^7 CFU/mL. For the same compound, the “number of colonies” value ([7]; 5.0 mg/kg) was 10^6 CFU/mL and the “number of colonies” value ([7]; 7.5 mg/kg) was 10^4 CFU/mL.

From publication PMC11939470, “The Cyclic Antimicrobial Peptide C-LR18 Has Enhanced Antibacterial Activity, Improved Stability, and a Longer Half-Life Compared to the Original Peptide” (Antibiotics, 2025)
